From patent US20250100996A1, “HETEROCYCLOALKYL AND HETEROARYL COMPOUNDS AND PHARMACEUTICAL COMPOSITIONS THAT MODULATE IKZF2” (Plexium, Inc., priority 2021, published 2025)

Assays:
[1] = molecular target: T1, human E3 ligase component cereblon (CRBN) (Homo sapiens, UniProt Q96SW2); experiment: Cereblon (CRBN) target engagement, NanoBRET TE Intracellular E3 Ligase Assay in transfected HEK-293T cells; details: read-out: CRBN Binding EC50
T1 construct: host or cells: HEK293T
Summary of the method: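 Tracer displacement was read as the 610/450 nm BRET signal after 2 h at 37° C with an 11-point dilution series, typically 10 μM to 100 pM. Live HEK-293T cells expressed NanoLuc fused N-terminal to human CRBN together with DDB1. IC50 was fitted with a four-parameter logistic model.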

IKZF1 (Ikaros) = molecular target: T2, IKZF1 (Ikaros) (Homo sapiens, UniProt Q13422); experiment: IKZF1 reporter degradation assay (HEK 293T IKZF1-mNeonGreen reporter cell line); format: cell-based; details: 24 hours incubation
T2 construct: mScarlet (behind P2A) (C, cleaved yes); expressed in transfected cells
T2 sequence (Q96SW2 whole entry partner): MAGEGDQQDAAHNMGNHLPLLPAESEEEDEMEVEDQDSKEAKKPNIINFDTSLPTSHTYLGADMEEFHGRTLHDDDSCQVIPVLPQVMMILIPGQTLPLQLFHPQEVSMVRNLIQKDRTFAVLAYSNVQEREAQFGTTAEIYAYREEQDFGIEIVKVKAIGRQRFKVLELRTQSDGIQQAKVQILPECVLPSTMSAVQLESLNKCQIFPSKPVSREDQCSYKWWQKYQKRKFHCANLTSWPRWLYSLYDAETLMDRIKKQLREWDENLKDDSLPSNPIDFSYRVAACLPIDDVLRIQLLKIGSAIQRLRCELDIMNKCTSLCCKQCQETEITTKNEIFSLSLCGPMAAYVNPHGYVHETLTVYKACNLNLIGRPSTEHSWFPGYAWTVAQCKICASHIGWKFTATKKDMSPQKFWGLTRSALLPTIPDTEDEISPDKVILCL
T2 sequence (Q16531 whole entry partner): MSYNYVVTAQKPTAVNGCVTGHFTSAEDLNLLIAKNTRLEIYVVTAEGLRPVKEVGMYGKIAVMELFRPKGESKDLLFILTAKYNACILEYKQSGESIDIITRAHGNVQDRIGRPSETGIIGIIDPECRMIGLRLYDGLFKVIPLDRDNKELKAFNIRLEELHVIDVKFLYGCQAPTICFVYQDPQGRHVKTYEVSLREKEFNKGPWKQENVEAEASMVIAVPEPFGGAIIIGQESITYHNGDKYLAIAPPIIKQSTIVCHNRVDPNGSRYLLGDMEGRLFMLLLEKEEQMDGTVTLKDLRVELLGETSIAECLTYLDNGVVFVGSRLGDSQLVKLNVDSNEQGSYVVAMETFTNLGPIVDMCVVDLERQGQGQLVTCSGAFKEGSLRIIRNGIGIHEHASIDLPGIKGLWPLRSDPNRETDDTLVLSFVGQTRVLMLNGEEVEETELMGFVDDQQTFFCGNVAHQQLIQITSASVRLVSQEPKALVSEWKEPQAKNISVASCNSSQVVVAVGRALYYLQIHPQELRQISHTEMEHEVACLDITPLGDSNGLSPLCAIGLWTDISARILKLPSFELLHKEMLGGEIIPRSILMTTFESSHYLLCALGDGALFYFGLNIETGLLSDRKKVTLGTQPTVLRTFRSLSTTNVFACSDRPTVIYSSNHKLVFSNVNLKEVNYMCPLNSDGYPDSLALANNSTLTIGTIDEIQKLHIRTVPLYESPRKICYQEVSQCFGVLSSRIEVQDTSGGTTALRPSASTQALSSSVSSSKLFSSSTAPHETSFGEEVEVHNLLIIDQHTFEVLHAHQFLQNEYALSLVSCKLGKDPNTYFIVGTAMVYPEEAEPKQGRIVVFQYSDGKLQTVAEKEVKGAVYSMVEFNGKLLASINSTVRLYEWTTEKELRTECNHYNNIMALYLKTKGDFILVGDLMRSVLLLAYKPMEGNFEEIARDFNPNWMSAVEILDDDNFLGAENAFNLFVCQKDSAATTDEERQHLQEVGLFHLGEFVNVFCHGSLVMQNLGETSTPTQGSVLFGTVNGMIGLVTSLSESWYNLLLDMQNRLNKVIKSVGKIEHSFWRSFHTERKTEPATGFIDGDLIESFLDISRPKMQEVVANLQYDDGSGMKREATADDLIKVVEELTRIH
T2 sequence (Q13422 whole entry): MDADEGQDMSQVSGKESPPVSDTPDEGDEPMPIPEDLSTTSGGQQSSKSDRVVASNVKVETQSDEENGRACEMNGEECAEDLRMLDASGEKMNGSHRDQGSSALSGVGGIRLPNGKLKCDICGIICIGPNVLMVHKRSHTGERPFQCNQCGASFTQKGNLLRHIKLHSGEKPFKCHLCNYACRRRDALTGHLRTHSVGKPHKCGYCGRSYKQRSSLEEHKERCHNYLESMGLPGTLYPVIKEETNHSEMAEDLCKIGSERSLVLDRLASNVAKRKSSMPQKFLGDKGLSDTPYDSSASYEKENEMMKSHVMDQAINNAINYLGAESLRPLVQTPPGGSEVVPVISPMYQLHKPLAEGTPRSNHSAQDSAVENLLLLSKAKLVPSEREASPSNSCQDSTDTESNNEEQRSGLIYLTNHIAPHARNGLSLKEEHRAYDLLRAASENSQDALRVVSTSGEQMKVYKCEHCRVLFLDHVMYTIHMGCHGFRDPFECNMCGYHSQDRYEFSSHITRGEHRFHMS
Source text: Polycistronic plasmids were constructed for the mammalian expression of fluorescent reporter fusions of human transcription factors IKZF1 (Ikaros), IKZF2 (Helios), and IKZF3 (Aiolos). The respective protein sequences had their C-terminal end joined to a GGGGS linker repeated three times followed by mNeonGreen, P2A sequence, and mScarlet. The DNA sequences of the open reading frames are as follows:
IKZF1, IKZF2, and IKZF3 constructs were cloned into the UCOE Hygromycin expression vectors (Millipore Sigma). Reporter constructs were transfected using cationic lipid reagents into adherent HEK 293T cells and stable integrants were selected by treatment with 200 μg/mL hygromycin B. Clonal populations were obtained from the population of stable integrants either by limiting dilution or fluorescence activated cell sorting.
The clonal stable cell lines were maintained under constant 200 μg/mL hygromycin B selection while being passaged for use in the degradation assays. […] The fluorescence intensity of the IKZF1/2/3-mNeonGreen (FITC channel) and mScarlet (PE channel) reporters were routinely analyzed by flow cytometry to confirm consistent expression levels between experiments.
The IKZF1/IKZF2/IKZF3 degradation assays were carried out by harvesting the HEK 293T reporter cell lines and resuspending the cells in media formulated for reduced background fluorescence (FluoroBrite; Thermo Fisher). The respective cell lines were seeded at a density of 4000 cells/well into black-walled 384-well optical grade assay tissue culture plates. The cells were incubated overnight at 37° C. to allow for attachment to the assay plate. Dilutions of the compounds were prepared in DMSO from 10 mM compound stocks. The assay plates were treated with appropriate concentrations of the compounds by dispensing the DMSO dilutions in quadruplicate wells with an upper limit of 0.5% final DMSO.
After 24 hours incubation with the compounds, the assay plates were imaged on an ImageXpress Pico microscopy system (cells maintained at 37° C. during imaging) to obtain the fluorescent readouts. The assay plates were imaged in the FITC and Tetramethylrhodamine (TRITC) channels to obtain the mNeonGreen fluorescence intensity (reporter degradation data) and mScarlet fluorescence intensity (for cell segmentation). 293T-IKZF1 and 293T-IKZF3 reporter cell lines were imaged with exposures of 500 milliseconds (ms) for both FITC and TRITC channels, while the 293T-IKZF2 reporter cell line was imaged with exposures of 1000 ms for FITC and 1250 ms for TRITC. The resulting data was analyzed with Cell Reporter Xpress software using the 2-channel cell scoring analysis with a “percent positive” readout. The TRITC channel was selected for the “nuclei” segmentation with a threshold of 20 while the FITC channel was selected for the “Marker 1” segmentation and a threshold of 100 for the IKZF1 and IKZF3 reporter lines. […] The minimum segmentation width was set to 6 micrometers and the maximum segmentation width was set to 15 micrometers for all cell lines. The DC50 calculations were determined by regression to best fit four-parameter logistic curves using GraphPad Prism.

IKZF2 (Helios) [2] = molecular target: T3, IKZF2 (Helios) (Homo sapiens, UniProt Q96SW2+Q9UKS7); experiment: IKZF2 reporter degradation assay (HEK 293T IKZF2-mNeonGreen reporter cell line); format: cell-based; details: 24 hours incubation; for inhibition at 1 µM: HEK-293T, 24 h
T3 construct: Leu-Asp junction (codons ctcgac before the linker); mScarlet (behind P2A) (C, cleaved yes); expressed in transfected cells
T3 sequence (Q9UKS7 whole entry): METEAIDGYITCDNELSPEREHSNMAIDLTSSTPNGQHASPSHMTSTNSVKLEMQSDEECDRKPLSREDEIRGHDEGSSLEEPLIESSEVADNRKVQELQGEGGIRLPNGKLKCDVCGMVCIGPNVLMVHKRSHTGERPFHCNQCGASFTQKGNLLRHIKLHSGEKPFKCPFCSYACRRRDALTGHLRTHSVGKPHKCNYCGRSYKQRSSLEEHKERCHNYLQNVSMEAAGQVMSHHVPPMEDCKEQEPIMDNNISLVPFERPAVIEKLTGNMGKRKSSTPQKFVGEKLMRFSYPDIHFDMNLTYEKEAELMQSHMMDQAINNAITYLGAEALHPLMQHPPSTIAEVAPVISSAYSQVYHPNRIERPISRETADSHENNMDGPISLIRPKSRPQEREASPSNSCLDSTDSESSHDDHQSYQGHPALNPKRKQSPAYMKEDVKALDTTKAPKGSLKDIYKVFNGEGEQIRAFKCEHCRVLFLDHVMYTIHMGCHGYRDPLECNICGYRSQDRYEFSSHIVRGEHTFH
T3 sequence (Q96SW2 whole entry): as the sequence (Q96SW2 whole entry partner) above
T3 sequence (Q16531 whole entry partner): as the sequence (Q16531 whole entry partner) above
Summary of the method: (§1)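 In reporter HEK 293T clones, the FITC exposure was 1000 ms for the IKZF2 line and 500 ms for the IKZF1 and IKZF3 lines. Imaging followed 24 h of compound treatment, and percent-positive scoring was fitted to a four-parameter logistic curve for DC50.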

IKZF2 (Helios) [3] = molecular target: T4, IKZF2 (Helios) (Homo sapiens, UniProt Q9UKS7); experiment: as above; format: cell-based; details: 24 hours incubation
T4 construct: Leu-Asp junction (codons ctcgac before the linker); mScarlet (behind P2A) (C, cleaved yes); expressed in transfected cells
T4 sequence (Q9UKS7 whole entry): as the sequence (Q9UKS7 whole entry) above
T4 sequence (Q96SW2 whole entry, further chain): as the sequence (Q96SW2 whole entry partner) above
T4 sequence (Q16531 whole entry partner): as the sequence (Q16531 whole entry partner) above
Summary of the method: as §1

IKZF3 (Aiolos) = molecular target: T5, IKZF3 (Aiolos) (Homo sapiens, UniProt Q9UKT9); experiment: IKZF3 reporter degradation assay (HEK 293T IKZF3-mNeonGreen reporter cell line); format: cell-based; details: 24 hours incubation
T5 construct: Leu-Asp junction (codons ctcgac before the linker); mScarlet (behind P2A) (C, cleaved yes); expressed in transfected cells
T5 sequence (Q96SW2 whole entry partner): as the sequence (Q96SW2 whole entry partner) above
T5 sequence (Q16531 whole entry partner): as the sequence (Q16531 whole entry partner) above
T5 sequence (Q9UKT9 whole entry): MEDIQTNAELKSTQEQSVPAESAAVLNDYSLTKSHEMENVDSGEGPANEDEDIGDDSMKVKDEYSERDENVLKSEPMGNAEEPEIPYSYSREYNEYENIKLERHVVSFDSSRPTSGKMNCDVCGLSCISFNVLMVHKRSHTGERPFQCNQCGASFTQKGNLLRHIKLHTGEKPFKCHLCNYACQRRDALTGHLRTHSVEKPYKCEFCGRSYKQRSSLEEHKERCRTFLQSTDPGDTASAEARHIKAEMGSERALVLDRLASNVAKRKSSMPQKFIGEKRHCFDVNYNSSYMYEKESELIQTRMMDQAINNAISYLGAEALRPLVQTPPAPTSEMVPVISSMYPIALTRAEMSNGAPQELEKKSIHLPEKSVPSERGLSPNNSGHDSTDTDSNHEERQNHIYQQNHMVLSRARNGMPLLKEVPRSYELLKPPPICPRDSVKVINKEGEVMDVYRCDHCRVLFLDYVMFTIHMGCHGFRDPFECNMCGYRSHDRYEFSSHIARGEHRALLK
Summary of the method: as §1

[4] = HEK 293T IKZF1-mNeonGreen reporter
[5] = @ 1 μM, HEK 293T IKZF2-mNeonGreen reporter
[6] = HEK 293T IKZF2-mNeonGreen reporter
[7] = HEK 293T IKZF3-mNeonGreen reporter
[8] = 1 μM compound, HEK 293T IKZF2 reporter cells

T1 sequence (Q96SW2 whole entry): as the sequence (Q96SW2 whole entry partner) above
T1 sequence (Q16531 whole entry partner): as the sequence (Q16531 whole entry partner) above

Compound | EC50 [1] [nM] | DC50 (IKZF1 (Ikaros); [4]) [nM] | inhibition at 1 µM (IKZF2 (Helios) [2]; [5]) [%] | DC50 (IKZF2 (Helios) [3]; [6]) [nM] | DC50 (IKZF3 (Aiolos); [7]) [nM] | IKZF2 % Degradation @ 1 μM (IKZF2 (Helios) [2]; [5]) [%] | DC50 (IKZF1 (Ikaros); HEK 293T IKZF1 reporter cells) [nM] | inhibition at 1 µM (IKZF2 (Helios) [2]; [8]) [%] | DC50 (IKZF2 (Helios) [3]; HEK 293T IKZF2 reporter cells) [nM] | DC50 (IKZF3 (Aiolos); HEK 293T IKZF3 reporter cells) [nM]
O=C1CCC(N2Cc3cc(OC4CCC[C@@H]4N4CC(c5cncnc5)C4)ccc3C2=O)C(=O)N1 (mixture of isomers) [Compound 196-B, Rac-3-(1-oxo-5-(((cis)-2-(3-(pyrimidin-5-yl)azetidin-1-yl)cyclopentyl)oxy)isoindolin-2-yl)piperidine-2,6-dione] | 214 | > 30000 | 17.6 | 601 | > 30000 |  |  |  |  | 
O=C1CCC(N2Cc3cc(OC4CCCCC4N4CC(c5ccnc6[nH]ccc56)C4)ccc3C2=O)C(=O)N1 (stereo not shown) [Compound 199-B, 3-(5-((2-(3-(1H-pyrrolo[2,3-b]pyridin-4-yl)azetidin-1-yl)cyclohexyl)oxy)-1-oxoisoindolin-2-yl)piperidine-2,6-dione] | 21 | > 30000 | 75 | 14 | > 30000 |  |  |  |  | 
Cc1cnc(C2CN([C@H]3CCCC[C@H]3Oc3ccc4c(c3)CN(C3CCC(=O)NC3=O)C4=O)C2)o1 (mixture of isomers) [Compound 174-B, Rac-3-(5-(((cis)-2-(3-(5-methyloxazol-2-yl)azetidin-1-yl)cyclohexyl)oxy)-1-oxoisoindolin-2-yl)piperidine-2,6-dione] | 36 | > 30000 | 70.3 | 28 | > 30000 |  |  |  |  | 
O=C1CCC(N2Cc3cc(O[C@H]4CCCC[C@@H]4N4CC(c5ccc6c(c5)OCCO6)C4)ccc3C2=O)C(=O)N1 (stereo partly drawn) [Compound 58-A, 3-(5-(((1S,2S)-2-(3-(2,3-dihydrobenzo[b][1,4]dioxin-6-yl)azetidin-1-yl)cyclohexyl)oxy)-1-oxoisoindolin-2-yl)piperidine-2,6-dione] | 3 | > 30000 | 64.5 | 5 | > 30000 |  |  |  |  | 
Cc1cnc(C2CN([C@H]3CCCC3Oc3ccc4c(c3)CN(C3CCC(=O)NC3=O)C4=O)C2)o1 (mixture of isomers) [Compound 161-B, Rac-3-(5-(((cis)-2-(3-(5-methyloxazol-2-yl)azetidin-1-yl)cyclopentyl)oxy)-1-oxoisoindolin-2-yl)piperidine-2,6-dione] | 120 | > 30000 | 49.7 | 138 | > 30000 |  |  |  |  | 
COc1cc(C2CN(C3CCCC3Oc3ccc4c(c3)CN(C3CCC(=O)NC3=O)C4=O)C2)ccn1 (stereo not shown) [Compound 170-B, 3-(5-((2-(3-(2-methoxypyridin-4-yl)azetidin-1-yl)cyclopentyl)oxy)-1-oxoisoindolin-2-yl)piperidine-2,6-dione] | 109 | > 30000 | 54.6 | 66 | > 30000 |  |  |  |  | 
O=C1CCC(N2Cc3cc(O[C@H]4CCCC[C@@H]4N4CC(c5ccncc5)C4)ccc3C2=O)C(=O)N1 (single isomer, unassigned) [Compound 85-B] | 28 | > 30000 | 27.5 | 216 |  |  |  |  |  | 
O=C1CCC(N2Cc3cc(OC4CCCCC4N4CC(c5cccc6[nH]ncc56)C4)ccc3C2=O)C(=O)N1 (stereo not shown) [Compound 211-B, 3-(5-((2-(3-(2H-indazol-4-yl)azetidin-1-yl)cyclohexyl)oxy)-1-oxoisoindolin-2-yl)piperidine-2,6-dione] | 28 | > 30000 | 79.3 | 64 | > 30000 |  |  |  |  | 
O=C1CCC(N2Cc3cc(O[C@H]4CCCC[C@@H]4N4CC(c5ccncc5F)C4)ccc3C2=O)C(=O)N1 (mixture of isomers) [Compound 167-B, Rac-3-(5-(((trans)-2-(3-(3-fluoropyridin-4-yl)azetidin-1-yl)cyclohexyl)oxy)-1-oxoisoindolin-2-yl)piperidine-2,6-dione] | 74 | > 30000 | 28.8 | 241 | > 30000 |  |  |  |  | 
O=C1CCC(N2Cc3cc(O[C@H]4CCCC[C@@H]4N4CC(c5ccncc5Cl)C4)ccc3C2=O)C(=O)N1 (mixture of isomers) [Compound 173-B, Rac-3-(5-(((trans)-2-(3-(3-chloropyridin-4-yl)azetidin-1-yl)cyclohexyl)oxy)-1-oxoisoindolin-2-yl)piperidine-2,6-dione] | 52 | > 30000 | 66.7 | 31 | > 30000 |  |  |  |  | 
Cc1cnccc1C1CN(C2CCCCC2Oc2ccc3c(c2)CN(C2CCC(=O)NC2=O)C3=O)C1 (stereo not shown) [Compound 198-B, 3-(5-((2-(3-(3-methylpyridin-4-yl)azetidin-1-yl)cyclohexyl)oxy)-1-oxoisoindolin-2-yl)piperidine-2,6-dione] | 10 | > 30000 | 72.3 | 11 | > 30000 |  |  |  |  | 
O=C1CCC(N2Cc3cc(O[C@H]4CCCC[C@@H]4N4CC(c5ccc6[nH]ncc6c5)C4)ccc3C2=O)C(=O)N1 (stereo partly drawn) [Compound 204-B, 3-(5-(((1S,2S)-2-(3-(1H-indazol-5-yl)azetidin-1-yl)cyclohexyl)oxy)-1-oxoisoindolin-2-yl)piperidine-2,6-dione] | 37 | > 30000 | 75.4 | 22 | > 30000 |  |  |  |  | 
O=C1CCC(N2Cc3cc(O[C@H]4CCCC[C@H]4N4CC(c5ccncc5)C4)ccc3C2=O)C(=O)N1 (single isomer, unassigned) [Compound 86-B] | 76 | > 30000 |  | 189 |  | 22.5 |  |  |  | 
COc1ccc(C2CN(C3CCCCC3Oc3ccc4c(c3)CN(C3CCC(=O)NC3=O)C4=O)C2)cn1 (stereo not shown) [Compound 16-B, 3-(5-((2-(3-(6-methoxypyridin-3-yl)azetidin-1-yl)cyclohexyl)oxy)-1-oxoisoindolin-2-yl)piperidine-2,6-dione] |  |  |  |  |  |  | > 30000 | 80.6 | 22.6 | > 30000
O=C1CCC(N2Cc3cc(OC4CCCCC4N4CC(c5ccccn5)C4)ccc3C2=O)C(=O)N1 (stereo not shown) [Compound 51-B, 3-(1-oxo-5-((2-(3-(pyridin-2-yl)azetidin-1-yl)cyclohexyl)oxy)isoindolin-2-yl)piperidine-2,6-dione] |  |  |  |  |  |  | > 30000 | 24 | 321 | > 30000
COc1ncc(C2CN(C3CCCCC3Oc3ccc4c(c3)CN(C3CCC(=O)NC3=O)C4=O)C2)cn1 (stereo not shown) [Compound 76-B, 3-(5-((2-(3-(2-methoxypyrimidin-5-yl)azetidin-1-yl)cyclohexyl)oxy)-1-oxoisoindolin-2-yl)piperidine-2,6-dione] |  |  |  |  |  |  | > 30000 | 84.6 | 28.6 | > 30000
O=C1CCC(N2Cc3cc(O[C@H]4CCCC[C@@H]4N4CC(C5CCOCC5)C4)ccc3C2=O)C(=O)N1 (stereo partly drawn) [Compound 1-A, 3-(1-oxo-5-(((1S,2S)-2-(3-(tetrahydro-2H-pyran-4-yl)azetidin-1-yl)cyclohexyl)oxy)isoindolin-2-yl)piperidine-2,6-dione] |  |  |  |  |  |  | > 30000 | 83.4 | 8.89 | > 30000
